Data on one compound can be found in patent US11246856B2, “Methods of treating resistant cancers” (University of Maryland, Baltimore, priority 2017, dated 2022).

The test system of one test is A375 cells. Nature of the test: Cell proliferation, monolayer A375 cells. The test is classed as cell-based. To be noted: PLX4032 treatment, FIG. 1D. The protocol: A375, SK-MEL-5 and SK-MEL-28 cell lines were maintained in DMEM growth medium containing 10% FCS, 2 mM L-glutamine and 1 mM sodium pyruvate. The WM3248 cells were maintained in MCDB153:L15 (4:1) growth medium containing 2% FCS, […] insulin and 1.68 mM CaCl2. To create PLX4032-resistant cells, A375, SK-MEL-5, SK-MEL-28 and WM3248 cells were treated with […] in monolayer culture in growth medium for several weeks. The surviving cells were then expanded and cultured in increasing doses of PLX4032 up to […]. The resulting PLX4032-resistant cells, designated PLX4032-resistant (e.g., A375-PLX-R) were routinely maintained in the presence of […] PLX4032.

Test [1] relates to A375 spheroid cell-derived tumors. Nature of the test: Tumor xenograft assay, A375 spheroid cell-derived tumors. The test is classed as in vivo, NSG mice. The protocol: Cells were grown for ten days as spheroids and a single cell suspension, prepared by trypsin digestion, was resuspended in phosphate buffered saline containing 30% Matrigel and 100 μl containing 0.1 million cells were injected subcutaneously at the two front flanks of NOD/scid/IL2 receptor gamma-knockout mice (NSG mice) using a 26.5 gauge needle. PLX4032 was dissolved in phosphate-buffered saline containing 10% DMSO and delivered at 20 mg/kg by oral gavage in […] three times per week (M/W/F). Verteporfin was dissolved in phosphate-buffered saline containing 10% DMSO and 0-100 mg/kg was delivered by intraperitoneal injection of […] three times per week (M/W/F). Five mice were used per group (two tumors per mouse) and treatment was initiated two days after tumor cell injection. Tumor growth was monitored by measuring tumor diameter and calculating tumor volume using the formula, volume=4/3π×(diameter/2)^3. Mice were euthanized by injection of 250 μl of a 2.5% stock of Avertin per mouse followed by cervical dislocation of the neck. Tumor samples were harvested to prepare extract for immunoblot and sections for immunostaining. These experiments were reviewed and approved by the University of Maryland-Baltimore Institutional Animal Care and Use Committee. The plotted values are mean±SEM and significance were determined using the students t-test.

In the case of `CCCS(=O)(=O)Nc1ccc(F)c(C(=O)c2c[nH]c3ncc(-c4ccc(Cl)cc4)cc23)c1F` [PLX4032], the A375 cell proliferation entry with A375 cells is “reduces”. Besides, the tumor growth entry in test [1] (PLX4032 20 mg/kg oral gavage three times per week, FIG. 6B) is on record as “suppressed”. For the same compound, the “p21Cip1 level in tumors” value in test [1] (PLX4032-treated A375 tumors, FIG. 6C) was “slightly elevated”.
